Earlier results on one compound are cited in patent US10022348B2, “Topical solution of isotretinoin” (SUN PHARMACEUTICAL INDUSTRIES LIMITED, priority 2009, dated 2018).

This data set concerns patients with severe acne. As to conditions: oral.

With `CC1=C(/C=C/C(C)=C/C=C/C(C)=C\C(=O)O)C(C)(C)CCC1` [isotretinoin, 13-cis retinoic acid], the long-term remission result was “about 80 % of patients”.
